Columns and labels:
Assay type in all cases: cell-based
[1] = test system: Normal Human Epidermal Melanocytes moderately pigmented (NHEMs-MP); assay: Melanin content (pigmentation) of NHEMs-MP in culture
Protocol: (§1) This primary culture was cultivated in medium M254 supplemented (LIFE TECHNOLOGIES; ref:M-254-500) with HMGS (human melanocyte growth supplement; LIFE TECHNOLOGIES; ref: S-002-5) and gentamycin (LIFE TECHNOLOGIES; ref:15710-049) and maintained in a humidified incubator at 37° C. with a 5% CO2 atmosphere. For experiments (see below), cells were seeded at a density of 9×10^4 cells/well (100 μL/well) and cultured at 37° C. under a 5% CO2.
The NHEMs-MP were treated for 4 days, with a medium refresh after 2 days of treatment—Amberketal, Ambermax and with the reference molecule (L-DOPA)—when the culture media are collected and stored at −80° C. as shown in FIG. 2. At the end of the treatments, the culture media were collected a second time, pooled with the media collected at day 2 and centrifuged for 30 minutes (14000 rpm). The pellet obtained after centrifugation and NHEMs-MP treated cells were lysed in 150 μl of a NaOH 1M solution. 5 μl of each cell lysate were used for protein quantification using BCA protein assay. The remaining 145 μl of the lysates were heated at 80° C. during 1 h. The optical density was measured at 490 nm and the melanin content was determined by comparison with a standard curve of synthetic melanin and reported to the quantity of protein present in each cell well tested.
The effects of these 2 compounds, namely Ambermax and Amberketal, on the melanin production were evaluated as described above. Based on MTS results, moderately pigmented (MP) NHEMs were treated with these 2 compounds at one concentration (100 μM for Amberketal and 3.16 μM for Ambermax) for 4 days. In parallel, cell cultures were also treated with Ethanol 0.1%, a concentration corresponding to the test compounds solvent, and with a known modulator of pigmentation (L-DOPA 50 μM). […] At the end of the treatments (D4), cells were lysed, the melanin content was quantified by spectrophotometry and normalized to the amount of proteins. Extracellular melanin was also evaluated by the same methodology after centrifugation of the culture media.

OR7C1 = biological target: T1, OR7C1 (Homo sapiens, UniProt O76099); assay: Luciferase-based CRE gene reporter assay, dose-response on OR7C1; details: negative logarithm of the EC50 in Moles; semi-logarithmic dilutions from 1 mM to 316 nM on OR7C1; read-out: -LogEC50 (average n > 3) (converted)
T1 construct: transfected with a plasmid containing the CRE-luciferase and a plasmid containing the olfactory receptor; expressed in transfected cells; host or cells: HEK293T-RTP1A1/RTP2 (HEK293T stably expressing the chaperones RTP1A1 and RTP2)
T1 sequence (O76099 1-320): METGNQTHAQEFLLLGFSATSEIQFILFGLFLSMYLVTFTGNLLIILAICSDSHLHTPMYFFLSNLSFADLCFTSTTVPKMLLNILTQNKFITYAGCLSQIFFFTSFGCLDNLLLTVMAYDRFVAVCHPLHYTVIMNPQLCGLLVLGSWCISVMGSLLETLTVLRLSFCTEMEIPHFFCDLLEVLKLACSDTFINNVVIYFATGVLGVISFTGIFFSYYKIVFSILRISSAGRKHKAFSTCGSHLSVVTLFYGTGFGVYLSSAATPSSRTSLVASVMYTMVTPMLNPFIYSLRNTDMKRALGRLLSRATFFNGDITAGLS
Protocol: HEK293T-RTP1A1/RTP2 cells were maintained in minimal essential medium (EMEM, Lonza) containing 10% fetal bovine serum (M10). These cells were generated by transfecting HEK293T (Thermofisher Scientific, cat ref: R70007) with an expression vector containing the sequences of the chaperone proteins RTP1A1 and RTP2 and a resistance gene to puromycin, using Lipofectamine 2000. The recombinant cell population, used in these experiments, was selected by adding 10 μg/ml of puromycin into the culture medium and subsequently subcloned (WO 2014/191047 A1).
Potential OR7C1 agonists were diluted at a concentration of 1 mole/liter (M) into an organic solvent such as Dimethyl Sulfoxide (DMSO) or Ethanol to generate stock solutions. […]
For concentration-response analysis, serial dilutions of the tested molecules were prepared from stock solutions in EMEM plated into 96-well plates.
For the dose-response analysis, a Luciferase-based gene reporter assay (Promega, Leiden, the Netherlands) was used. Briefly, cells were platted on poly-D-lysine-coated 96-well plates and transfected with a plasmid containing the CRE-luciferase and a plasmid containing the olfactory receptor. Sixteen hours after transfection, the culture medium was replaced by serum-free EMEM containing the tested compounds at a determined concentration. After four hours of incubation at 37° C., cells were lysed and processed for luminescence measurement. Luminescence emission was recorded. Results were expressed as luciferase activity ([…] (RLU)) or as percentage of the response induced by 10 μM of the adenylate cyclase activator Forskolin. An empty plasmid is used as negative control.
Dose-response analyses using the luciferase-based reporter assay were performed using semi-logarithmic serial dilutions of the compounds, from 1 mM to 316 nM, on OR7C1. 46 compounds were tested in concentration-response analyses. In each experiment, an empty vector (pEFIBRHO) was used as negative control. Values are given as the negative logarithm of the EC50 in Moles.

[2] = test system: Normal Human Epidermal Melanocytes moderately pigmented (NHEMs-MP); assay: MTS cytotoxicity test on NHEMs-MP; details: 4 days of treatment, 5 concentrations, threshold 80% viability
Protocol: as §1
NHEMs moderately pigmented (NHEMs-MP) were seeded in 24-wells plates at a density of 9×10^4 cells/well, 72 h before the treatment with the different concentrations of 2 different compounds according to embodiments of the invention. After 2 days of treatment with these compounds, compounds were re-applied for 2 additional days according to the experimental scheme as shown in FIG. 1. Sodium dodecyl sulfate (SDS) at 0.05% was used as cytotoxicity positive control in order to validate the experiment. […]
An MTS assay (3-(4,5-dimethythiazol-2-yl)-5-(3-carboxymethoxyphenyl)-2-(4-sulfophenyl)-2H-tetrazolium) was performed to measure the maximal concentrations the compounds which can be used in the culture medium of NHEMs-MP without affecting cell viability. […] Cell viability was analyzed, and toxicity/viability was expressed in percentage relative to the ethanol treated condition which was fixed at 100%. […]

SMILES	melanin content in NHEMs ([1]; 50 μM, 4 days of treatment)	EC50 (OR7C1) [µM]	cell toxicity (MTS, viability relative to ethanol treated condition) [2]	increase of melanin present in the media (extracellular) ([1]; 100 μM, 4 days, NHEMs-MP, in comparison with DOPA (50 μM), p<0.01, n=10)	increase of intracellular melanin content ([1]; 100 μM, 4 days, NHEMs-MP, in comparison with DOPA (50 μM), p<0.01, n=12)
N[C@@H](Cc1ccc(O)c(O)c1)C(=O)O [L-DOPA, 3,4-dihydroxyphenylalanine, reference compound]	enhanced slightly the melanin content				
CC(=O)C1(C)CCC2=C(C1C)C(C)(C)CCC2 (stereo not drawn) [Compound 4, Georgywood]		25.1	no significant cell toxicity		
CC12CCC3C(CCC4C(C)(C)CCCC43C)(CO1)O2 (stereo not drawn) [Compound 17, Amberketal]		2.51		+99%	+40%
